Reference: patent US7235559B1, “Therapeutic quinazoline derivatives” (AstraZeneca AB, priority 1999, dated 2007)

Legend:
aurora2 kinase = target: T1, aurora2 kinase (Homo sapiens, UniProt O14965); assay: In Vitro aurora2 kinase inhibition test; assay type: biochemical
T1 construct: made in house; host or cells: Spodoptera frugiperda Sf21 insect cells (baculovirus)
T1 sequence (O14965 1-403): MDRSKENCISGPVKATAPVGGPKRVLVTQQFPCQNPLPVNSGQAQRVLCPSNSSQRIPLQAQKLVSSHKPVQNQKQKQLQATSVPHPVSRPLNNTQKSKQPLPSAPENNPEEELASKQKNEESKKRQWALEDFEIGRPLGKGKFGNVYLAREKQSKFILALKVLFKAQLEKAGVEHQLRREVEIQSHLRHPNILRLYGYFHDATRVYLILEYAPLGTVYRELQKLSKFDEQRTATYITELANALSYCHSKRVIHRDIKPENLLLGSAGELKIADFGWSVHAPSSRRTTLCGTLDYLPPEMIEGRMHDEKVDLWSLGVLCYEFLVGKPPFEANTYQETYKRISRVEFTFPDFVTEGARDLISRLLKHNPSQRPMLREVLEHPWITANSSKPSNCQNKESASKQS

MCF-7 cells [1] = assay: In Vitro cell proliferation assay, Assay 1 (CyQUANT cell density); assay type: cell-based; details: Homo sapiens, MCF7, 72 h, MCF-7, 3 days in presence of compound, read-out: concentration giving 50% inhibition of cell proliferation
Source text: (§1) These and other assays can be used to determine the ability of a test compound to inhibit the growth of adherent mammalian cell lines, for example the human tumour cell line MCF7.
MCF-7 (ATCC HTB-22) or other adherent cells were typically seeded at 1×10^3 cells per well (excluding the peripheral wells) in DMEM (Sigma Aldrich) without phenol red, plus 10% foetal calf serum, 1% L-glutamine and 1% penicillin/streptomycin in 96 well tissue culture treated clear plates (Costar). The following day (day 1), the media was removed from a no treatment control plate and the plate stored at −80° C. The remaining plates were dosed with compound (diluted from 10 mM stock in DMSO using DMEM (without phenol red, 10% FCS, 1% L-glutamine, 1% penicillin/streptomycin). Untreated control wells were included on each plate. After 3 days in the presence/absence of compound (day 4) the media was removed and the plates stored at −80° C. Twenty four hours later the plates were thawed at room temperature and cell density determined using the CyQUANT cell proliferation assay kit (c-7026/c-7027 Molecular Probes Inc.) according to manufacturers directions. Briefly, 200 μl of cell lysis/dye mixture (10 μl of 20× cell lysis buffer B, 190 μl of sterile water, 0.25 μl of CYQUANT GR dye) was added to each well and the plates incubated at room temperature for 5 minutes in the dark. […]

MCF7 cells = assay: In Vitro cell cycle analysis assay (FACS); assay type: cell-based, human; details: 10 μM, 24 hours
Description: This assay determines the ability of a test compound to arrest cells in specific phases of the cell cycle. Many different mammalian cell lines could be used in this assay and MCF7 cells are included here as an example. MCF-7 cells were seeded at 3×10^5 cells per T25 flask (Costar) in 5 ml DMEM (no phenol red 10% FCS, 1% L-glutamine 1% penicillin/streptomycin). Flasks were then incubated overnight in a humidified 37° C. incubator with 5% CO2. The following day 1 ml of DMEM (no phenol red 10% FCS, 1% L-glutamine 1% penicillin/streptomycin) carrying the appropriate concentration of test compound solubilised in DMSO was added to the flask. A no compound control treatments was also included (0.5% DMSO). The cells were then incubated for a defined time (usually 24 hours) with compound. After this time the media was aspirated from the cells and they were washed with 5 ml of prewarmed (37° C.) sterile PBSA, then detached from the flask by brief incubation with trypsin and followed by resuspension in 10 ml of 1% Bovine Serum Albumin (BSA, Sigma-Aldrich Co.) in sterile PBSA. The samples were then centrifuged at 2200 rpm for 10 min. The supernatant was aspirated and the cell pellet was resuspended in 200 μl of 0.1% (w/v) Tris sodium citrate, 0.0564% (w/v) NaCl, 0.03% (v/v) Nonidet NP40, [pH 7.6]. Propridium Iodide (Sigma Aldrich Co.) was added to 40 μg/ml and RNAase A (Sigma Aldrich Co.) to 100 μg/ml. The cells were then incubated at 37° C. for 30 minutes. The samples were centrifuged at 2200 rpm for 10 min, the supernatant removed and the remaining pellet (nuclei) resuspended in 200 μl of sterile PBSA. […] The samples were then transferred to LPS tubes and DNA content per cell analysed by Fluorescence activated cell sorting (FACS) using a FACScan flow cytometer (Becton Dickinson). Typically 25000 events were counted and recorded using CellQuest v1.1 software (Verity Software). Cell cycle distribution of the population was calculated using Modfit software (Verity Software) and expressed as percentage of cells in G0/G1, S and G2/M phases of the cell cycle. […]

MCF-7 cells [2] = assay: In Vitro cell proliferation assay, Assay 2 (BrdU incorporation); assay type: cell-based; details: Homo sapiens, MCF7; MCF-7, 48 hours with compound, 2 hour BrdU labelling; read-out: concentration giving 50% inhibition of BrdU incorporation
Source text: as §1
This assay determines the ability of at test compound to inhibit the incorporation of the thymidine analogue, 5′-bromo-2′-deoxy-uridine (BrdU) into cellular DNA. MCF-7 or other adherent cells were typically seeded at 0.8×10^4 cells per well in DMEM (Sigma Aldrich) without phenol red, plus 10% foetal calf serum, 1% L-glutamine and 1% penicillin/streptomycin (50 μl/well) in 96 well tissue culture treated 96 well plates (Costar) and allowed to adhere overnight. […] The optical density of the wells was then determined at 690 nm wavelength using a Titertek Multiscan plate reader. […]

For `COc1cc2ncnc(Nc3cnc(NC(=O)c4ccccc4)nc3)c2cc1OC` [Compound 6], the IC50 (aurora2 kinase) was 7.85 nM, the IC50 (MCF-7 cells [1]) was 1700 nM and the “% Cells in G1” value (MCF7 cells) was 43.22%. For the same molecule, the “% Cells in G2/M” value (MCF7 cells) was 30.38%, the “% Cells in S” value (MCF7 cells) was 18% and the IC50 (MCF-7 cells [2]) was 1920 to 2850 nM.
